Values of other authors in US12551486B2, “Rivaroxaban formulation” (Shanghai Auson Pharmaceuticals Co., Ltd., priority 2021, dated 2026).

Solubility in water: insoluble in water
Structure (SMILES): O=C(NC[C@H]1CN(c2ccc(N3CCOCC3=O)cc2)C(=O)O1)c1ccc(Cl)s1 [Rivaroxaban, 5-chloro-N-[[(5S)-2-oxo-3-[4-(3-oxomorpholin-4-yl)phenyl]-1,3-oxazolidin-5-yl]methyl]thiophene-2-carboxamide]
